# In patent publication US11078202B2, “β-lactamase inhibitor and use thereof” (priority 2018, dated 2021):
# Structures can show the parent of a compound that is named as a salt. Where two headings read alike, the source gives them in different places.
# Columns and labels:
# Type in all cases: cell-based
# [1] = system: Pseudomonas aeruginosa XNWB 0008 (AmpC); test: MIC of antibiotics alone, broth microdilution
# Procedure: (§1) The bacterial strains used for the minimum inhibitory concentration (MIC) test were frozen in a −80° C. ULT freezer and thawed 2 days before use. A small amount of frozen bacterial strains were scraped using a sterile inoculating loop, streaked onto a TSA solid culture dish for inoculation, and then cultured for 20-24 h at 35±2° C. in a normal atmospheric environment.
# (§2) 5-10 colonies with similar morphology were picked from the culture dish using a sterile inoculating loop and then re-streaked onto a suitable solid culture dish. Then the dish was placed into a normal incubator for culture for 20-24 h at 35±2° C.
# (§3) 5-10 single bacterial colonies were picked from the solid culture dish, resuspended in 500 μL of 0.9% NaCl, and adjusted to an OD600 of 0.1-0.15 with a spectrophotometer.
# (§4) The bacteria were then diluted 300-fold with 1.1×CAMHB.
# (§5) After addition, the 6 assay plates were covered by sterile covers. The mixtures in the assay plates were centrifuged by a centrifuge at 1000 rpm for 30 s, and mixed uniformly by oscillating with a microplate oscillator at 800 rpm for 1 min, and then cultured in a common incubator for 16-20 h at 35±2° C.
# (§6) The minimum inhibitory concentration of each compound was recorded by reference to guidelines from the Clinical and Laboratory Standards Institute.
# (§7) The minimum inhibitory concentrations of the compounds of the present invention and antibiotics (imipenem, ceftazidime, and ampicillin) against 11 strains of bacteria were tested in this study by reference to the medium microdilution method as indicated by the Clinical and Laboratory Standards Institute. The effect of the test compounds in combination with imipenem, ceftazidime, and ampicillin was also tested. Compounds were diluted two-fold in 96-well plates from the highest detection concentration of 64 μg/mL. The test compounds were tested in combination with a fixed concentration of imipenem (4 μg/mL), ceftazidime (8 μg/mL), and ampicillin (8 μg/mL). The bacterial inocula in the assay plates were resuscitated from TSA and diluted in CAMHB, while growth controls (GC wells) and sterile controls (SC wells) were set up in the assay plates.
# [2] = system: Klebsiella pneumoniae XNWB 0001 (KPC-1/2); test: MIC of antibiotics alone, broth microdilution; settings: antibiotic alone, K. pneumoniae XNWB 0001, β-lactamase KPC-1/2
# Procedure: as §1, §2, §3, §4, §5, §6, §7
# [3] = system: Klebsiella pneumoniae XNWB 0006 (CTX-M-15, SHV); test: MIC of antibiotics alone, broth microdilution
# Procedure: as §1, §2, §3, §4, §5, §6, §7
# [4] = system: Escherichia coli XNWB 0010 (SHV-2); test: MIC of antibiotics alone, broth microdilution; settings: antibiotic alone, E. coli XNWB 0010, β-lactamase SHV-2
# Procedure: as §1, §2, §3, §4, §5, §6, §7
# [5] = system: Enterobacter aerogenes XNWB 0011 (TEM-10); test: MIC of antibiotics alone, broth microdilution; settings: Klebsiella aerogenes; antibiotic alone; E. aerogenes XNWB 0011, β-lactamase TEM-10
# Procedure: as §1, §2, §3, §4, §5, §6, §7
# [6] = system: Klebsiella pneumoniae XNWB 0003 (KPC-11, SHV-12); test: MIC of antibiotics alone, broth microdilution
# Procedure: as §1, §2, §3, §4, §5, §6, §7
# [7] = system: Escherichia coli XNWB 0009 (SHV-5A); test: MIC of antibiotics alone, broth microdilution
# Procedure: as §1, §2, §3, §4, §5, §6, §7
# [8] = system: Klebsiella pneumoniae XNWB 0005 (KPC-3); test: MIC of antibiotics alone, broth microdilution
# Procedure: as §1, §2, §3, §4, §5, §6, §7
# [9] = system: Acinetobacter baumannii XNWB 0007 (AmpC); test: MIC of antibiotics alone, broth microdilution; settings: antibiotic alone, A. baumannii XNWB 0007, β-lactamase AmpC
# Procedure: as §1, §2, §3, §4, §5, §6, §7
# [10] = system: Klebsiella pneumoniae XNWB 0004 (KPC-2, SHV-12); test: microbe, parasite or virus in culture
# Procedure: as §1, §2, §3, §4, §5, §6, §7
# [11] = system: Klebsiella pneumoniae XNWB 0002 (KPC-2, SHV-5); test: microbe, parasite or virus in culture
# Procedure: as §1, §2, §3, §4, §5, §6, §7
# [12] = system: Pseudomonas aeruginosa XNWB 0008; test: MIC assay of test compounds combined with ceftazidime (8 μg/mL); settings: ceftazidime 8 μg/mL fixed
# Method in brief: (§8)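 Strains grown on TSA, colonies suspended to OD600 0.1-0.15, diluted 300-fold in CAMHB; compound dilutions combined with fixed ceftazidime or imipenem at concentrations given in assay names. Incubated 16-20 h at 35±2 °C; MIC read per CLSI guidelines, with growth and sterility controls.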
# [13] = system: Klebsiella pneumoniae XNWB 0006; test: as above; settings: ceftazidime 8 μg/mL fixed
# Method in brief: as §8
# [14] = system: Klebsiella pneumoniae XNWB 0002; test: as above; settings: ceftazidime 8 μg/mL fixed
# Method in brief: as §8
# [15] = system: Klebsiella pneumoniae XNWB 0004; test: as above; settings: ceftazidime 8 μg/mL fixed
# Method in brief: as §8
# [16] = system: Acinetobacter baumannii XNWB 0007; test: as above; settings: ceftazidime 8 μg/mL fixed
# Method in brief: as §8
# [17] = system: Klebsiella pneumoniae XNWB 0001; test: as above; settings: ceftazidime 8 μg/mL fixed
# Method in brief: as §8
# [18] = system: Klebsiella pneumoniae XNWB 0003; test: as above; settings: ceftazidime 8 μg/mL fixed
# Method in brief: as §8
# [19] = system: Klebsiella pneumoniae XNWB 0005; test: as above; settings: ceftazidime 8 μg/mL fixed
# Method in brief: as §8
# [20] = system: Pseudomonas aeruginosa XNWB 0008; test: MIC assay of test compounds combined with imipenem (4 μg/mL); settings: imipenem 4 μg/mL fixed
# Method in brief: as §8
# [21] = system: Klebsiella pneumoniae XNWB 0006; test: as above; settings: imipenem 4 μg/mL fixed
# Method in brief: as §8
# [22] = system: Klebsiella pneumoniae XNWB 0002; test: as above; settings: imipenem 4 μg/mL fixed
# Method in brief: as §8
# [23] = system: Klebsiella pneumoniae XNWB 0004; test: as above; settings: imipenem 4 μg/mL fixed
# Method in brief: as §8
# [24] = system: Acinetobacter baumannii XNWB 0007; test: as above; settings: imipenem 4 μg/mL fixed
# Method in brief: as §8
# [25] = system: Klebsiella pneumoniae XNWB 0001; test: as above; settings: imipenem 4 μg/mL fixed
# Method in brief: as §8
# [26] = system: Klebsiella pneumoniae XNWB 0003; test: as above; settings: imipenem 4 μg/mL fixed
# Method in brief: as §8
# [27] = system: Klebsiella pneumoniae XNWB 0005; test: as above; settings: imipenem 4 μg/mL fixed
# Method in brief: as §8
# [28] = system: Escherichia coli XNWB 0010; test: MIC assay of test compounds combined with ampicillin (8 μg/mL); settings: ampicillin 8 μg/mL fixed
# [29] = system: Enterobacter aerogenes XNWB 0011; test: as above; settings: ampicillin 8 μg/mL fixed
# [30] = system: Escherichia coli XNWB 0009; test: as above; settings: ampicillin 8 μg/mL fixed
# [31] = antibiotic alone, P. aeruginosa XNWB 0008, β-lactamase AmpC, read-out: MIC
# [32] = antibiotic alone, K. pneumoniae XNWB 0003, β-lactamase KPC-11, SHV-12, read-out: MIC
# [33] = antibiotic alone, K. pneumoniae XNWB 0005, β-lactamase KPC-3, read-out: MIC
Structure (SMILES),"MIC [1, 31] [µg/mL]",MIC [2] [µg/mL],MIC [4] [µg/mL],MIC [5] [µg/mL],"MIC [6, 32] [µg/mL]",MIC [7] [µg/mL],"MIC [8, 33] [µg/mL]",MIC [9] [µg/mL],MIC [10] [µg/mL],MIC [11] [µg/mL],MIC [3] [µg/mL],also measured
CC1(C)S[C@@H]2[C@H](NC(=O)[C@H](N)c3ccccc3)C(=O)N2[C@H]1C(=O)O [Ampicillin],> 32,> 32,> 32,> 32,> 32,> 32,> 32,> 32,> 32,> 32,–,"MIC ([3]; antibiotic alone, K. pneumoniae XNWB 0006, β-lactamase CTX-M-15, SHV, read-out: MIC): > 32 µg/mL"
CC(C)(O/N=C(\C(=O)N[C@@H]1C(=O)N2C(C(=O)[O-])=C(C[n+]3ccccc3)CS[C@H]12)c1csc(N)n1)C(=O)O [Ceftazidime],–,64 to 128,4 to 16,0.5 to 1,–,16 to 32,–,64,> 128,128,> 128,MIC [1]: 128 µg/mL; MIC [6]: > 128 µg/mL; MIC [8]: > 128 µg/mL
"O=C1N2C[C@H](N1OS(=O)(=O)O)C1(CC1)C[C@H]2c1cc(C2CCNC2)on1 (stereo partly drawn) [Example 45, (1R,4S)-6-oxo-4-(5-(pyrrolidin-3-yl)isoxazol-3-yl)-5,7-diazaspiro[bicyclo[3.2.1]octane-2,1′-cyclopropan]-7-yl sulfate]",–,–,–,–,–,–,–,–,–,–,–,The minimum concentration of test compounds combined with ceftazidime (8 μg/mL) for bacteriostasis [12]: B (B: 8-16 μg/mL); The minimum concentration of test compounds combined with ceftazidime (8 μg/mL) for bacteriostasis [13]: A (A: <8 μg/mL); The minimum concentration of test compounds combined with ceftazidime (8 μg/mL) for bacteriostasis [14]: A (A: <8 μg/mL); The minimum concentration of test compounds combined with ceftazidime (8 μg/mL) for bacteriostasis [15]: B (B: 8-16 μg/mL); The minimum concentration of test compounds combined with ceftazidime (8 μg/mL) for bacteriostasis [16]: C (C: 16-128 μg/mL); The minimum concentration of test compounds combined with ceftazidime (8 μg/mL) for bacteriostasis [17]: A (A: <8 μg/mL); The minimum concentration of test compounds combined with ceftazidime (8 μg/mL) for bacteriostasis [18]: A (A: <8 μg/mL); The minimum concentration of test compounds combined with ceftazidime (8 μg/mL) for bacteriostasis [19]: A (A: <8 μg/mL); The minimum concentration of test compounds combined with imipenem (4 μg/mL) for bacteriostasis [20]: A (A: <8 μg/mL); The minimum concentration of test compounds combined with imipenem (4 μg/mL) for bacteriostasis [21]: A (A: <8 μg/mL); The minimum concentration of test compounds combined with imipenem (4 μg/mL) for bacteriostasis [22]: A (A: <8 μg/mL); The minimum concentration of test compounds combined with imipenem (4 μg/mL) for bacteriostasis [23]: A (A: <8 μg/mL); The minimum concentration of test compounds combined with imipenem (4 μg/mL) for bacteriostasis [24]: C (C: 16-128 μg/mL); The minimum concentration of test compounds combined with imipenem (4 μg/mL) for bacteriostasis [25]: A (A: <8 μg/mL); The minimum concentration of test compounds combined with imipenem (4 μg/mL) for bacteriostasis [26]: A (A: <8 μg/mL); The minimum concentration of test compounds combined with imipenem (4 μg/mL) for bacteriostasis [27]: A (A: <8 μg/mL); The minimum concentration of test compounds combined with ampicillin (8 μg/mL) for bacteriostasis [28]: A (A: <8 μg/mL); The minimum concentration of test compounds combined with ampicillin (8 μg/mL) for bacteriostasis [29]: A (A: <8 μg/mL); The minimum concentration of test compounds combined with ampicillin (8 μg/mL) for bacteriostasis [30]: A (A: <8 μg/mL)
C[C@@H](O)[C@H]1C(=O)N2C(C(=O)O)=C(SCCN=CN)C[C@H]12 [Imipenem],16 to 32,64 to 128,≤ 0.125,0.5 to 1,8 to 16,0.125 to 0.5,32 to 64,32 to 64,64,32 to 64,0.125 to 0.5,–
